Laboratory results: ChEMBL document CHEMBL1255419, “Pharmacokinetic-pharmacodynamic assessment of faropenem in a lethal murine Bacillus anthracis inhalation postexposure prophylaxis model” (Antimicrob Agents Chemother, 2010)
Converted amounts (≈) assume the structure as drawn. The source made the active and inactive calls. No cut-off for these calls is given here.

Assays:
Bacillus anthracis [1] = experiment: microbe, parasite or virus in culture; type: functional
[2] = Plasma protein binding in CD1 mouse at 5 ug/ml by ultrafiltration technique; type: ADME, cell-free; conditions: read-out: PPB (converted)
[3] = Plasma protein binding in CD1 mouse at 1000 ug/ml by ultrafiltration technique; type: ADME, cell-free; conditions: read-out: PPB (converted)
Bacillus anthracis [4] = experiment: Antibacterial activity against Bacillus anthracis Ames infected in BALB/c mouse assessed as decrease in bacterial load in lungs at 20 mg/kg, ip administered 24 hrs postinfection at 4 hrs interval for 14 days measured on day 27; type: functional, organism-based; parameters: dose 20 mg/kg
Bacillus anthracis [5] = experiment: Antibacterial activity against Bacillus anthracis Ames infected in BALB/c mouse assessed as survival rate at 10 mg/kg, ip administered 24 hrs postinfection at 4 hrs interval for 14 days measured on day 27; type: functional; conditions: route intraperitoneal
Bacillus anthracis [6] = experiment: Antibacterial activity against Bacillus anthracis Ames infected in BALB/c mouse assessed as survival rate at 20 mg/kg, ip administered 24 hrs postinfection at 4 hrs interval for 14 days measured on day 27; type: functional; conditions: route intraperitoneal
Bacillus anthracis [7] = experiment: Antibacterial activity against Bacillus anthracis Ames infected in BALB/c mouse assessed as survival rate at 40 mg/kg, ip administered 24 hrs postinfection at 4 hrs interval for 14 days measured on day 27; type: functional; conditions: route intraperitoneal
Bacillus anthracis [8] = experiment: Antibacterial activity against Bacillus anthracis Ames infected in BALB/c mouse assessed as survival rate at 80 mg/kg, ip administered 24 hrs postinfection at 4 hrs interval for 14 days measured on day 27; type: functional; conditions: route intraperitoneal
Bacillus anthracis [9] = experiment: Antibacterial activity against Bacillus anthracis Ames infected in BALB/c mouse assessed as survival rate at 10 mg/kg, ip administered 24 hrs postinfection at 6 hrs interval for 14 days measured on day 27; type: functional; conditions: route intraperitoneal
Bacillus anthracis [10] = experiment: Antibacterial activity against Bacillus anthracis Ames infected in BALB/c mouse assessed as survival rate at 20 mg/kg, ip administered 24 hrs postinfection at 6 hrs interval for 14 days measured on day 27; type: functional; conditions: route intraperitoneal
Bacillus anthracis [11] = experiment: Antibacterial activity against Bacillus anthracis Ames infected in BALB/c mouse assessed as survival rate at 40 mg/kg, ip administered 24 hrs postinfection at 6 hrs interval for 14 days measured on day 27; type: functional; conditions: route intraperitoneal
Bacillus anthracis [12] = experiment: Antibacterial activity against Bacillus anthracis Ames infected in BALB/c mouse assessed as survival rate at 80 mg/kg, ip administered 24 hrs postinfection at 6 hrs interval for 14 days measured on day 27; type: functional; conditions: route intraperitoneal
Bacillus anthracis [13] = experiment: Antibacterial activity against Bacillus anthracis Ames infected in BALB/c mouse assessed as survival rate at 10 mg/kg, ip administered 24 hrs postinfection at 12 hrs interval for 14 days measured on day 27; type: functional; conditions: route intraperitoneal
Bacillus anthracis [14] = experiment: Antibacterial activity against Bacillus anthracis Ames infected in BALB/c mouse assessed as survival rate at 20 mg/kg, ip administered 24 hrs postinfection at 12 hrs interval for 14 days measured on day 27; type: functional; conditions: route intraperitoneal
Bacillus anthracis [15] = experiment: Antibacterial activity against Bacillus anthracis Ames infected in BALB/c mouse assessed as survival rate at 40 mg/kg, ip administered 24 hrs postinfection at 12 hrs interval for 14 days measured on day 27; type: functional; conditions: route intraperitoneal
Bacillus anthracis [16] = experiment: Antibacterial activity against Bacillus anthracis Ames infected in BALB/c mouse assessed as survival rate at 80 mg/kg, ip administered 24 hrs postinfection at 12 hrs interval for 14 days measured on day 27; type: functional; conditions: route intraperitoneal
[17] = f%TMIC in ip dosed Bacillus anthracis Ames infected BALB/c mouse model at ED50 administered 24 hrs postinfection at 4 hrs interval for 14 days measured on day 27; type: functional
[18] = f%TMIC in ip dosed Bacillus anthracis Ames infected BALB/c mouse model at ED90 administered 24 hrs postinfection at 4 hrs interval for 14 days measured on day 27; type: functional
[19] = f%TMIC in ip dosed Bacillus anthracis Ames infected BALB/c mouse model at ED99 administered 24 hrs postinfection at 4 hrs interval for 14 days measured on day 27; type: functional
Streptococcus pneumoniae [20] = experiment: Antibacterial activity against Streptococcus pneumoniae clinical isolates; type: functional
Streptococcus pneumoniae [21] = experiment: f%TMIC in Streptococcus pneumoniae infected pharmacokinetic-pharmacodynamic model; type: functional
[22] = f%TMIC in Bacillus anthracis Ames infected human model at 600 […], BID; type: functional
Bacillus anthracis [23] = experiment: f%TMIC in Bacillus anthracis Ames infected pharmacokinetic-pharmacodynamic model at 0.12 ug/ml; type: functional
Bacillus anthracis [24] = experiment: f%TMIC in Bacillus anthracis Ames infected pharmacokinetic-pharmacodynamic model at 0.25 ug/ml; type: functional
Bacillus anthracis [25] = experiment: f%TMIC in Bacillus anthracis Ames infected pharmacokinetic-pharmacodynamic model at 0.5 ug/ml; type: functional
Bacillus anthracis [26] = experiment: microbe, parasite or virus in culture; type: functional; remark: listed apart in the source
Bacillus anthracis [27] = experiment: microbe, parasite or virus in culture; type: functional; remark: listed apart in the source
Bacillus anthracis [28] = experiment: Antibacterial activity against beta-lactamase Bla1 and Bla2-producing Bacillus anthracis Sterne by broth microdilution method; type: functional
Bacillus anthracis [29] = experiment: microbe, parasite or virus in culture; type: functional; remark: listed apart in the source
Bacillus anthracis [30] = experiment: microbe, parasite or virus in culture; type: functional; remark: listed apart in the source
Bacillus anthracis [31] = experiment: microbe, parasite or virus in culture; type: functional; remark: listed apart in the source
Bacillus anthracis [32] = experiment: microbe, parasite or virus in culture; type: functional; remark: listed apart in the source
Bacillus anthracis [33] = experiment: microbe, parasite or virus in culture; type: functional; remark: listed apart in the source
Bacillus anthracis [34] = experiment: microbe, parasite or virus in culture; type: functional; remark: listed apart in the source
Bacillus anthracis [35] = experiment: microbe, parasite or virus in culture; type: functional; remark: listed apart in the source
Bacillus anthracis [36] = experiment: microbe, parasite or virus in culture; type: functional; remark: listed apart in the source
Bacillus anthracis [37] = experiment: microbe, parasite or virus in culture; type: functional; remark: listed apart in the source
Bacillus anthracis [38] = experiment: microbe, parasite or virus in culture; type: functional; remark: listed apart in the source
Bacillus anthracis [39] = experiment: microbe, parasite or virus in culture; type: functional; remark: listed apart in the source
Bacillus anthracis [40] = experiment: microbe, parasite or virus in culture; type: functional; remark: listed apart in the source
Bacillus anthracis [41] = experiment: microbe, parasite or virus in culture; type: functional; remark: listed apart in the source
Bacillus anthracis [42] = experiment: microbe, parasite or virus in culture; type: functional; remark: listed apart in the source
Bacillus anthracis [43] = experiment: microbe, parasite or virus in culture; type: functional; remark: listed apart in the source
Bacillus anthracis [44] = experiment: microbe, parasite or virus in culture; type: functional; remark: listed apart in the source
Bacillus anthracis [45] = experiment: microbe, parasite or virus in culture; type: functional; remark: listed apart in the source
Bacillus anthracis [46] = experiment: microbe, parasite or virus in culture; type: functional; remark: listed apart in the source
Bacillus anthracis [47] = experiment: microbe, parasite or virus in culture; type: functional; remark: listed apart in the source
Bacillus anthracis [48] = experiment: microbe, parasite or virus in culture; type: functional; remark: listed apart in the source
Bacillus anthracis [49] = experiment: microbe, parasite or virus in culture; type: functional; remark: listed apart in the source
Bacillus anthracis [50] = experiment: microbe, parasite or virus in culture; type: functional; remark: listed apart in the source
Bacillus anthracis [51] = experiment: microbe, parasite or virus in culture; type: functional; remark: listed apart in the source
Bacillus anthracis [52] = experiment: microbe, parasite or virus in culture; type: functional; remark: listed apart in the source
Bacillus anthracis [53] = experiment: microbe, parasite or virus in culture; type: functional; remark: listed apart in the source
Homo sapiens [54] = species: Homo sapiens; experiment: Plasma protein binding in human at 5 ug/ml by ultrafiltration technique; conditions: read-out: PPB (converted)
Homo sapiens [55] = species: Homo sapiens; experiment: Plasma protein binding in human at 1000 ug/ml by ultrafiltration technique; conditions: read-out: PPB (converted)

## Cc1oc(=O)oc1COC(=O)C1=C([C@H]2CCCO2)S[C@@H]2[C@@H]([C@@H](C)O)C(=O)N12 [FAROPENEM MEDOXOMIL]
Bacillus anthracis [1]
  MIC: 0.25 µg/mL (≈ 0.629 µM)
[2]
  fraction unbound at 5 ug/ml: 0.15
[3]
  fraction unbound at 1000 ug/ml: 0.82
Bacillus anthracis [4]
  inhibition: Active
Bacillus anthracis [5]
  survival at 10 mg/kg: 77.8%
Bacillus anthracis [6]
  survival at 20 mg/kg: 80%
Bacillus anthracis [7]
  survival at 40 mg/kg: 80%
Bacillus anthracis [8]
  survival at 80 mg/kg: 100%
Bacillus anthracis [9]
  survival at 10 mg/kg: 30%
Bacillus anthracis [10]
  survival at 20 mg/kg: 60%
Bacillus anthracis [11]
  survival at 40 mg/kg: 90%
Bacillus anthracis [12]
  survival at 80 mg/kg: 90%
Bacillus anthracis [13]
  survival at 10 mg/kg: 0%
Bacillus anthracis [14]
  survival at 20 mg/kg: 10%
Bacillus anthracis [15]
  survival at 40 mg/kg: 20%
Bacillus anthracis [16]
  survival at 80 mg/kg: 22.2%
[17]
  fT>MIC: 10.6%
[18]
  fT>MIC: 13.4%
[19]
  fT>MIC: 16.4%
Streptococcus pneumoniae [20]
  MIC: 0.008 µg/mL (≈ 0.0201 µM)
Streptococcus pneumoniae [21]
  fT>MIC: 13.9%
[22]
  fT>MIC: 62%
Bacillus anthracis [23]
  fT>MIC: 51%
Bacillus anthracis [24]
  fT>MIC: 44%
Bacillus anthracis [25]
  fT>MIC: 32%
Bacillus anthracis [26]
  MIC: ≤ 0.06 µg/mL
Bacillus anthracis [27]
  MIC: 0.25 µg/mL (≈ 0.629 µM)
Bacillus anthracis [28]
  MIC: ≤ 0.06 µg/mL
Bacillus anthracis [29]
  MIC: > 64 µg/mL
Bacillus anthracis [30]
  MIC: ≤ 0.06 µg/mL
Bacillus anthracis [31]
  MIC: 0.06 µg/mL (≈ 0.151 µM)
Bacillus anthracis [32]
  MIC: 0.12 µg/mL (≈ 0.302 µM)
Bacillus anthracis [33]
  MIC: ≤ 0.06 µg/mL
Bacillus anthracis [34]
  MIC: 0.25 µg/mL (≈ 0.629 µM)
Bacillus anthracis [35]
  MIC: 0.12 µg/mL (≈ 0.302 µM)
Bacillus anthracis [36]
  MIC: 0.12 µg/mL (≈ 0.302 µM)
Bacillus anthracis [37]
  MIC: 0.12 µg/mL (≈ 0.302 µM)
Bacillus anthracis [38]
  MIC: 0.12 µg/mL (≈ 0.302 µM)
Bacillus anthracis [39]
  MIC: 0.12 µg/mL (≈ 0.302 µM)
Bacillus anthracis [40]
  MIC: 0.12 µg/mL (≈ 0.302 µM)
Bacillus anthracis [41]
  MIC: ≤ 0.06 µg/mL
Bacillus anthracis [42]
  MIC: 0.12 µg/mL (≈ 0.302 µM)
Bacillus anthracis [43]
  MIC: 0.25 µg/mL (≈ 0.629 µM)
Bacillus anthracis [44]
  MIC: 1 µg/mL (≈ 2.52 µM)
Bacillus anthracis [45]
  MIC: 0.12 µg/mL (≈ 0.302 µM)
Bacillus anthracis [46]
  MIC: 0.12 µg/mL (≈ 0.302 µM)
Bacillus anthracis [47]
  MIC: 0.12 µg/mL (≈ 0.302 µM)
Bacillus anthracis [48]
  MIC: 0.5 µg/mL (≈ 1.26 µM)
Bacillus anthracis [49]
  MIC: ≤ 0.06 µg/mL
Bacillus anthracis [50]
  MIC: ≤ 0.06 µg/mL
Bacillus anthracis [51]
  MIC: ≤ 0.06 µg/mL
Bacillus anthracis [52]
  MIC: 0.12 µg/mL (≈ 0.302 µM)
Bacillus anthracis [53]
  MIC: ≤ 0.06 µg/mL
Homo sapiens [54]
  fraction unbound at 5 ug/ml: 0.1
Homo sapiens [55]
  fraction unbound at 1000 ug/ml: 0.787
